# In US8175815B2, “Method for assessing absorption properties of low solubility compounds” (F. Hoffmann-La Roche AG, priority 2006, dated 2012):
# Values joined by “and” are separate entries in the source; they are usually repeats but may differ in a detail not shown here. Equal values may be shown once. Read-outs that look alike come from different tables or passages of the source.
# Experiments:
# [1] = flux function combining permeability and solubility measurement results; settings: for flux increase factor: 1% HP-β-CD vs excipient-free; for net flux effect due to 1% HP-β-CD: pH 5.0, 6.2, 7.4, FIG. 13
# [2] = mice, oral, cited from earlier work
# [3] = equilibrium solubility-pH, direct-UV microtitre plate (μSOL Evolution) with and without excipients; settings: for pKa at 18 h / solubility at 18 h: aqueous universal buffer (pION); for pKa at 18 h: saturated drug suspension, pKa^APP ± SD; for solubility at 18 h: 25 °C, kinetic from dmso stock
# [4] = Double-Sink PAMPA permeability with and without excipients
# [5] = mice; +HP-β-CD / no excip.
# physchem [6] = assay: physchem
# physchem [7] = assay: physchem; remark: listed apart in the source
# [8] = PAMPA, 30 min, 50 μM
# [9] = 18 h
# [10] = PAMPA
# [11] = dogs, gel caps, 200 mg/kg; cited from earlier work
# [12] = cited from earlier work
# [13] = buffer + 1% w/v HP-b-CD, * = anticipated salt limit exceeded
# [14] = buffer, * = anticipated salt limit exceeded
# [15] = apparent/true molecular weight, 40 μm ABL assumed, 0 mM NaTC (first value)
# [16] = apparent ionization constant in saturated solution, excipient none
# [17] = apparent ionization constant, excipient 3 mM NaTC
# [18] = apparent ionization constant, excipient 15 mM NaTC
# [19] = apparent ionization constant, excipient 0.1M KCl
# [20] = apparent ionization constant, excipient 0.2M KCl
# [21] = apparent ionization constant, excipient 1% HP-b-CD
# [22] = apparent ionization constant, excipient 1% NMP
# [23] = apparent ionization constant, excipient 1% PEG400
# [24] = apparent ionization constant, excipient 1% PG
# [25] = apparent ionization constant, excipient 5% PEG400
# [26] = apparent ionization constant, excipient 5% PG
# [27] = apparent ionization constant, excipient […] HP-b-CD
# [28] = apparent ionization constant, excipient […] NMP
# [29] = apparent ionization constant, excipient […] PEG400
# [30] = apparent ionization constant, excipient […] PG
compound,measurement,setting,value
CCCSc1ccc2nc(NC(=O)OC)[nH]c2c1 [albendazole],flux increase factor,[1]; pH 5.0,3.0
same,flux increase factor,[1]; pH 6.2,3.1
same,flux increase factor,[1]; pH 7.4,3.1
same,average flux gain factor,"[1]; 1% HP-β-CD, average over pH 5.0, 6.2, 7.4",3.1
same,net flux effect due to 1% HP-β-CD,[1],"gains, uniformly at the three pH values of interest"
same,Cmax +HP-β-CD,[2]; HP-β-CD (20% w/v),390 ng/mL
same,Tmax +HP-β-CD,[2]; HP-β-CD (20% w/v),0.33 h
same,Cmax no excip.,[2]; suspension of excipient-free drug,90 ng/mL
same,Tmax no excip.,[2],0.75 h
same,So^APP,[3]; buffer,0.88 ± 0.07 µg/mL
same,S(pH 7.4),[3]; buffer + 1% w/v HP-b-CD,34 μg mL^−1
same,So^APP,[3]; buffer + 1% w/v HP-b-CD,34 ± 1 µg/mL
same,S(pH 5.0),[3]; [13],34 μg mL^−1
same,S(pH 6.2),[3]; [13],34 μg mL^−1
same,S(pH 5.0),[3]; [14],1.0 μg mL^−1
same,S(pH 6.2),[3]; [14],0.89 μg mL^−1
same,S(pH 7.4),[3]; [14],0.88 μg mL^−1
same,Po,[4]; buffer,4.28 ± 1.59 E−04 cm s^−1
same,Po,[4]; buffer + 1% w/v HP-b-CD,3.12 ± 0.30 E−05 cm s^−1
same,AUC Ratio,[5],1.4
same,Cmax Ratio,[5],4.3
same,Tmax Ratio,[5],0.4
CCCCc1oc2ccccc2c1C(=O)c1cc(I)c(OCCN(CC)CC)c(I)c1 [amiodarone],net flux effect due to 1% HP-β-CD,[1],cross-over pattern as a function of pH
COc1ccc(CCN2CCC(Nc3nc4ccccc4n3Cc3ccc(F)cc3)CC2)cc1 [astemizole],pKa,physchem [6],5.99 ± 0.06
same,pKa at 18 h,physchem [7]; pKa^APP ± SD,9.1 ± 0.5
same,PABL 0 mM NaTC,[8],1080
same,PABL 3 mM NaTC,[8],561
same,PABL 15 mM NaTC,[8],9
same,determined ABL thickness hABL,[8],< 50 μm
same,MW*/MW,[4]; 3 mM NaTC (second value),5
same,MW*/MW,[4]; 15 mM NaTC (third value),56000
same,MW*/MW,[4]; [15],~1
same,So ± SD,[9],4.0 ± 2.9 µg/mL
Clc1ccccc1C(c1ccccc1)(c1ccccc1)n1ccnc1 [clotrimazole],pKa,physchem [6],6.02 ± 0.05
same,pKa at 18 h,physchem [7]; pKa^APP ± SD,7.4 ± 1.1
same,PABL 0 mM NaTC,[8],2400
same,PABL 3 mM NaTC,[8],604
same,determined ABL thickness hABL,[8],< 50 μm
same,MW*/MW,[4]; 3 mM NaTC (second value),5
same,MW*/MW,[4]; [15],< 1
OCCN(CCO)c1nc(N2CCCCC2)c2nc(N(CCO)CCO)nc(N3CCCCC3)c2n1 [dipyridamole],net flux effect due to 1% HP-β-CD,[10]; pH 5,the flux remains unaffected by the excipient
same,pKa,physchem [6],6.22 ± 0.15
same,pKa at 18 h,[3]; [16],5.8 ± 0.1
same,pKa at 18 h,[3]; [17],5.6 ± 0.1
same,pKa at 18 h,[3]; [18],5.2 ± 0.1
same,pKa at 18 h,[3]; [19],6 ± 0.1
same,pKa at 18 h,[3]; [20],5.9 ± 0.1
same,pKa at 18 h,[3]; [21],5.6 ± 0.1
same,pKa at 18 h,[3]; [22],5.7 ± 0.1
same,pKa at 18 h,[3]; [23],5.9 ± 0.2
same,pKa at 18 h,[3]; [24],5.8 ± 0.1
same,pKa at 18 h,[3]; [25],6.2 ± 0.1
same,pKa at 18 h,[3]; [26],5.8 ± 0.1
same,pKa at 18 h,[3]; [27],5.8 ± 0.1
same,pKa at 18 h,[3]; [28],5.8 ± 0.1
same,pKa at 18 h,[3]; [29],6.8 ± 0.1
same,pKa at 18 h,[3]; [30],5.8 ± 0.1
same,So ± SD,[3]; excipient 3 mM NaTC,5.3 ± 0.9 µg/mL
same,So^APP ± SD,[3]; excipient 3 mM NaTC,24 ± 2 µg/mL
same,So ± SD,[3]; excipient 15 mM NaTC,9.9 ± 1.7 µg/mL
same,So^APP ± SD,[3]; excipient 15 mM NaTC,110 µg/mL and 110 ± 5 µg/mL
same,So ± SD,[3]; excipient 0.1M KCl,3.3 ± 0.8 µg/mL
same,So^APP ± SD,[3]; excipient 0.1M KCl,5.2 ± 0.8 µg/mL
same,So ± SD,[3]; excipient 0.2M KCl,3.1 ± 0.7 µg/mL
same,So^APP ± SD,[3]; excipient 0.2M KCl,5.8 ± 0.9 µg/mL
same,So ± SD,[3]; excipient 1% HP-b-CD,3.2 ± 0.7 µg/mL
same,So^APP ± SD,[3]; excipient 1% HP-b-CD,15 ± 1 µg/mL
same,So ± SD,[3]; excipient 1% NMP,2.4 ± 0.7 µg/mL
same,So^APP ± SD,[3]; excipient 1% NMP,8.1 ± 1.5 µg/mL
same,So ± SD,[3]; excipient 1% PEG400,5.0 ± 1.9 µg/mL
same,So^APP ± SD,[3]; excipient 1% PEG400,11 ± 3 µg/mL
same,So ± SD,[3]; excipient 1% PG,2.7 ± 0.2 µg/mL
same,So^APP ± SD,[3]; excipient 1% PG,6.5 ± 0.3 µg/mL
same,So ± SD,[3]; excipient 5% PEG400,13.7 ± 2.4 µg/mL
same,So^APP ± SD,[3]; excipient 5% PEG400,14 ± 1 µg/mL
same,So ± SD,[3]; excipient 5% PG,3.9 ± 0.8 µg/mL
same,So^APP ± SD,[3]; excipient 5% PG,9.8 ± 1.3 µg/mL
same,So ± SD,[3]; excipient […] HP-b-CD,2.8 ± 0.7 µg/mL
same,So^APP ± SD,[3]; excipient […] HP-b-CD,7.1 ± 0.8 µg/mL
same,So ± SD,[3]; excipient […] NMP,2.2 ± 0.6 µg/mL
same,So^APP ± SD,[3]; excipient […] NMP,5.9 ± 1.1 µg/mL
same,So^APP ± SD,[3]; excipient […] PEG400,4.6 ± 1.2 µg/mL
same,So ± SD,[3]; excipient […] PG,2.1 ± 0.3 µg/mL
same,So^APP ± SD,[3]; excipient […] PG,5.8 ± 0.5 µg/mL
same,So ± SD,[3]; excipient none,2.3 ± 0.7 µg/mL
same,So^APP ± SD,[3]; excipient none,6.2 ± 1.1 µg/mL and 6.2 µg/mL
same,PABL 0 mM NaTC,[8],941
same,PABL 3 mM NaTC,[8],922
same,PABL 15 mM NaTC,[8],47
same,MW*/MW,[4]; 3 mM NaTC (second value),1
same,MW*/MW,[4]; 15 mM NaTC (third value),1100
same,MW*/MW,[4]; [15],~1
COc1ccc(Cl)cc1C(=O)NCCc1ccc(S(=O)(=O)NC(=O)NC2CCCCC2)cc1 [glybenclamide],Cmax +HP-β-CD,[11],610 ng/mL
same,Cmax no excip.,[11],83.9 ng/mL
same,Tmax +HP-β-CD,[11],2.5 h
same,Tmax no excip.,[11],4.5 h
same,average flux gain factor,[10]; pH 5,3.1
same,flux increase factor,[10]; pH 5,20.1
same,flux increase factor,[10]; pH 6.2,4.3
same,flux decrease factor,[10]; pH 7.4,3
same,pKa,physchem [6],5.75 ± 0.15
same,pKa at 18 h,physchem [7]; negative shift in the apparent pKa,1.6
same,pKa at 18 h,physchem [7]; pKa^APP ± SD,4.6 ± 0.1
same,n ± SD,[9],1.1 ± 0.1
Cc1cccc(Nc2ccccc2C(=O)O)c1C [mefenamic acid],net flux effect due to 1% HP-β-CD,[10]; pH 5,"In acid solutions, flux is helped by 1% HP-β-CD, but in neutral solutions, there is a net loss"
same,pKa,physchem [6],4.39 ± 0.09
same,solubility at 18 h,[3]; aqueous buffer,0.021 ± 0.005 µg/mL
same,solubility at 18 h,[3]; aqueous with cosolvent or surfactant or cyclodextrin,< 3 µg/mL
same,pKa at 18 h,[3]; [16],4.3 ± 0.3
same,pKa at 18 h,[3]; [17],5.8 ± 0.1
same,pKa at 18 h,[3]; [18],5.7 ± 0.1
same,pKa at 18 h,[3]; [19],4.4 ± 0.4
same,pKa at 18 h,[3]; [20],4.3
same,pKa at 18 h,[3]; [21],5.2 ± 0.1
same,pKa at 18 h,[3]; [22],4.4 ± 0.2
same,pKa at 18 h,[3]; [23],4.5
same,pKa at 18 h,[3]; [24],4 ± 0.3
same,pKa at 18 h,[3]; [25],4.5 ± 1.1
same,pKa at 18 h,[3]; [26],4
same,pKa at 18 h,[3]; [27],4.6 ± 0.1
same,pKa at 18 h,[3]; [28],4.1 ± 0.6
same,pKa at 18 h,[3]; [29],4.5 ± 0.2
same,pKa at 18 h,[3]; [30],4.1 ± 0.3
same,So ± SD,[3]; excipient 3 mM NaTC,0.11 ± 0.03 µg/mL
same,So^APP ± SD,[3]; excipient 3 mM NaTC,1.9 ± 0.4 µg/mL
same,So ± SD,[3]; excipient 15 mM NaTC,0.10 ± 0.03 µg/mL
same,So^APP ± SD,[3]; excipient 15 mM NaTC,1.4 ± 0.3 µg/mL
same,So^APP ± SD,[3]; excipient 0.1M KCl,0.023 ± 0.005 µg/mL
same,So^APP ± SD,[3]; excipient 0.2M KCl,0.021 µg/mL
same,So ± SD,[3]; excipient 1% HP-b-CD,0.61 µg/mL
same,So^APP ± SD,[3]; excipient 1% HP-b-CD,2.9 ± 0.5 µg/mL
same,So^APP ± SD,[3]; excipient 1% NMP,0.062 ± 0.010 µg/mL
same,So^APP ± SD,[3]; excipient 1% PEG400,0.021 µg/mL
same,So^APP ± SD,[3]; excipient 1% PG,0.021 µg/mL
same,So^APP ± SD,[3]; excipient 5% PEG400,0.028 µg/mL
same,So^APP ± SD,[3]; excipient 5% PG,0.056 µg/mL
same,So ± SD,[3]; excipient […] HP-b-CD,0.28 ± 0.02 µg/mL
same,So^APP ± SD,[3]; excipient […] HP-b-CD,0.34 ± 0.02 µg/mL
same,So^APP ± SD,[3]; excipient […] NMP,0.019 ± 0.009 µg/mL
same,So^APP ± SD,[3]; excipient […] PEG400,0.004 ± 0.002 µg/mL
same,So^APP ± SD,[3]; excipient […] PG,0.021 µg/mL
same,intrinsic solubility in excipient free buffer,[3]; excipient free,0.021 µg/mL
same,So^APP ± SD,[3]; excipient none,0.021 ± 0.005 µg/mL
same,salt limit (sdiff 3-4 approximation),[3]; three orders of magnitude above excipient-free intrinsic solubility,21 µg/mL
same,PABL 0 mM NaTC,[8],782
same,PABL 3 mM NaTC,[8],909
same,PABL 15 mM NaTC,[8],795
same,refined ABL thickness,[8],exceeding 75 μm
same,MW*/MW,[4]; 3 mM NaTC (second value),3
same,MW*/MW,[4]; 15 mM NaTC (third value),4
same,MW*/MW,[4]; [15],4
hydroxypropyl-β-cyclodextrin [HP-β-CD],solubility,[12],450000 µg/mL
